# Test results taken from ChEMBL document CHEMBL1154911, “Structure and biosynthesis of amphidinol 17, a hemolytic compound from Amphidinium carterae” (J Nat Prod, 2010).
# Calls of active or inactive are those of the source. No cut-off for these calls is given here.
# Experiments:
# Kluyveromyces marxianus = assay: Antifungal activity against Candida kefyr ATCC 2512 by disk diffusion method; format: functional, organism-based
# [1] = Toxicity in human RBC assessed as hemolytic activity after 24 hrs by microtiter plate assay; format: cell-based, Erythrocyte; conditions: human red blood cells (RBC)
# Aspergillus niger = assay: Antifungal activity against Aspergillus niger ATCC 16404 by disk diffusion method; format: functional, organism-based
compound,measurement,setting,value
C=CCC/C=C/C=C/C=C/CC/C=C/[C@@H](O)[C@H](O)C1O[C@@H]([C@H](O)[C@H](O)C(=C)CC[C@@H](O)C2C[C@@H](O)[C@@H](O)[C@H]([C@@H](O)[C@H](O)/C=C(\C)CC[C@H](O)C[C@H](O)[C@H](O)[C@@H](C)C[C@H](O)C(O)C(C)CCC(O)CCCC(O)CCCCCOS(=O)(=O)O)O2)C[C@@H](O)[C@H]1O (stereo partly drawn) [AMPHIDINOL 17],Activity,Kluyveromyces marxianus,inactive
same,EC50 at 24 h,[1],4.9 µM
same,Activity,Aspergillus niger,inactive
